Reference: ChEMBL document CHEMBL4765227, “Hit to lead optimization of a series of N-[4-(1,3-benzothiazol-2-yl)phenyl]acetamides as monoacylglycerol lipase inhibitors with potential anticancer activity” (Eur J Med Chem, 2016)

How the values were obtained:
Type in all cases: functional
Conditions in all cases: read-out: GI
[1] = test system: HL-60(TB); experiment: Growth inhibition of human HL-60(TB) cells at 10 uM incubated for 48 hrs by sulforhodamine B assay relative to control
[2] = test system: K562; experiment: Growth inhibition of human K562 cells at 10 uM incubated for 48 hrs by sulforhodamine B assay relative to control
[3] = test system: MOLT-4; experiment: Growth inhibition of human MOLT-4 cells at 10 uM incubated for 48 hrs by sulforhodamine B assay relative to control
[4] = test system: RPMI-8226; experiment: Growth inhibition of human RPMI-8226 cells at 10 uM incubated for 48 hrs by sulforhodamine B assay relative to control
[5] = test system: SR; experiment: Growth inhibition of human SR cells at 10 uM incubated for 48 hrs by sulforhodamine B assay relative to control
[6] = test system: A549; experiment: Growth inhibition of human A549/ATCC cells at 10 uM incubated for 48 hrs by sulforhodamine B assay relative to control
[7] = test system: NCI-H226; experiment: Growth inhibition of human NCI-H226 cells at 10 uM incubated for 48 hrs by sulforhodamine B assay relative to control
[8] = test system: NCI-H23; experiment: Growth inhibition of human NCI-H23 cells at 10 uM incubated for 48 hrs by sulforhodamine B assay relative to control
[9] = test system: NCI-H322M; experiment: Growth inhibition of human NCI-H322M cells at 10 uM incubated for 48 hrs by sulforhodamine B assay relative to control
[10] = test system: NCI-H522; experiment: Growth inhibition of human NCI-H522 cells at 10 uM incubated for 48 hrs by sulforhodamine B assay relative to control
[11] = test system: HCC 2998; experiment: Growth inhibition of human HCC 2998 cells at 10 uM incubated for 48 hrs by sulforhodamine B assay relative to control
[12] = test system: HT-29; experiment: Growth inhibition of human HT-29 cells at 10 uM incubated for 48 hrs by sulforhodamine B assay relative to control
[13] = test system: KM12; experiment: Growth inhibition of human KM12 cells at 10 uM incubated for 48 hrs by sulforhodamine B assay relative to control
[14] = test system: SF-268; experiment: Growth inhibition of human SF-268 cells at 10 uM incubated for 48 hrs by sulforhodamine B assay relative to control
[15] = test system: SF-295; experiment: Growth inhibition of human SF-295 cells at 10 uM incubated for 48 hrs by sulforhodamine B assay relative to control
[16] = test system: SF-539; experiment: Growth inhibition of human SF-539 cells at 10 uM incubated for 48 hrs by sulforhodamine B assay relative to control
[17] = test system: SNB-19; experiment: Growth inhibition of human SNB-19 cells at 10 uM incubated for 48 hrs by sulforhodamine B assay relative to control
[18] = test system: U-251; experiment: Growth inhibition of human U-251 cells at 10 uM incubated for 48 hrs by sulforhodamine B assay relative to control
[19] = test system: Malme-3M; experiment: Growth inhibition of human Malme-3M cells at 10 uM incubated for 48 hrs by sulforhodamine B assay relative to control
[20] = test system: M14; experiment: Growth inhibition of human M14 cells at 10 uM incubated for 48 hrs by sulforhodamine B assay relative to control
[21] = test system: MDA-MB-435; experiment: Growth inhibition of human MDA-MB-435 cells at 10 uM incubated for 48 hrs by sulforhodamine B assay relative to control
[22] = test system: SK-MEL-5; experiment: Growth inhibition of human SK-MEL-5 cells at 10 uM incubated for 48 hrs by sulforhodamine B assay relative to control
[23] = test system: UACC-257; experiment: Growth inhibition of human UACC-257 cells at 10 uM incubated for 48 hrs by sulforhodamine B assay relative to control
[24] = test system: UACC-62; experiment: Growth inhibition of human UACC-62 cells at 10 uM incubated for 48 hrs by sulforhodamine B assay relative to control
[25] = test system: IGROV-1; experiment: Growth inhibition of human IGROV-1 cells at 10 uM incubated for 48 hrs by sulforhodamine B assay relative to control
[26] = test system: OVCAR-3; experiment: Growth inhibition of human OVCAR-3 cells at 10 uM incubated for 48 hrs by sulforhodamine B assay relative to control
[27] = test system: OVCAR-4; experiment: Growth inhibition of human OVCAR-4 cells at 10 uM incubated for 48 hrs by sulforhodamine B assay relative to control
[28] = test system: OVCAR-5; experiment: Growth inhibition of human OVCAR-5 cells at 10 uM incubated for 48 hrs by sulforhodamine B assay relative to control
[29] = test system: OVCAR-8; experiment: Growth inhibition of human OVCAR-8 cells at 10 uM incubated for 48 hrs by sulforhodamine B assay relative to control
[30] = test system: SK-OV-3; experiment: Growth inhibition of human SK-OV-3 cells at 10 uM incubated for 48 hrs by sulforhodamine B assay relative to control
[31] = test system: 786-0; experiment: Growth inhibition of human 786-0 cells at 10 uM incubated for 48 hrs by sulforhodamine B assay relative to control
[32] = test system: ACHN; experiment: Growth inhibition of human ACHN cells at 10 uM incubated for 48 hrs by sulforhodamine B assay relative to control
[33] = test system: RXF 393; experiment: Growth inhibition of human RXF 393 cells at 10 uM incubated for 48 hrs by sulforhodamine B assay relative to control
[34] = test system: SN12C; experiment: Growth inhibition of human SN12C cells at 10 uM incubated for 48 hrs by sulforhodamine B assay relative to control
[35] = test system: TK-10; experiment: Growth inhibition of human TK-10 cells at 10 uM incubated for 48 hrs by sulforhodamine B assay relative to control
[36] = test system: UO-31; experiment: Growth inhibition of human UO-31 cells at 10 uM incubated for 48 hrs by sulforhodamine B assay relative to control
[37] = test system: PC-3; experiment: Growth inhibition of human PC-3 cells at 10 uM incubated for 48 hrs by sulforhodamine B assay relative to control
[38] = test system: DU-145; experiment: Growth inhibition of human DU-145 cells at 10 uM incubated for 48 hrs by sulforhodamine B assay relative to control
[39] = test system: MCF7; experiment: Growth inhibition of human MCF7 cells at 10 uM incubated for 48 hrs by sulforhodamine B assay relative to control
[40] = test system: MDA-MB-231; experiment: Growth inhibition of human MDA-MB-231 cells at 10 uM incubated for 48 hrs by sulforhodamine B assay relative to control
[41] = test system: Hs-578T; experiment: Growth inhibition of human Hs-578T cells at 10 uM incubated for 48 hrs by sulforhodamine B assay relative to control
[42] = test system: BT-549; experiment: Growth inhibition of human BT-549 cells at 10 uM incubated for 48 hrs by sulforhodamine B assay relative to control
[43] = test system: T47D; experiment: Growth inhibition of human T47D cells at 10 uM incubated for 48 hrs by sulforhodamine B assay relative to control
[44] = test system: MDA-MB-468; experiment: Growth inhibition of human MDA-MB-468 cells at 10 uM incubated for 48 hrs by sulforhodamine B assay relative to control

O=C(CN1CCCCC1)Nc1ccc(-c2nc3ccccc3s2)cc1
inhibition of growth at 10 µM [1]: 15.8% | inhibition of growth at 10 µM [2]: 49.8% | inhibition of growth at 10 µM [3]: 14.3% | inhibition of growth at 10 µM [4]: 11.3% | inhibition of growth at 10 µM [5]: 56% | inhibition of growth at 10 µM [6]: 5.89% | inhibition of growth at 10 µM [7]: 11.3% | inhibition of growth at 10 µM [8]: 20.8% | inhibition of growth at 10 µM [9]: -11.9% | inhibition of growth at 10 µM [10]: -4.5% | inhibition of growth at 10 µM [11]: 9.72% | inhibition of growth at 10 µM [12]: 42.2% | inhibition of growth at 10 µM [13]: 3.6% | inhibition of growth at 10 µM [14]: 0.48% | inhibition of growth at 10 µM [15]: 4.43% | inhibition of growth at 10 µM [16]: -0.41% | inhibition of growth at 10 µM [17]: -0.02% | inhibition of growth at 10 µM [18]: 22.8% | inhibition of growth at 10 µM [19]: -9.17% | inhibition of growth at 10 µM [20]: -5.76% | inhibition of growth at 10 µM [21]: -6.67% | inhibition of growth at 10 µM [22]: 9.16% | inhibition of growth at 10 µM [23]: 2.05% | inhibition of growth at 10 µM [24]: 5.84% | inhibition of growth at 10 µM [25]: -10.3% | inhibition of growth at 10 µM [26]: -0.25% | inhibition of growth at 10 µM [27]: 4.89% | inhibition of growth at 10 µM [28]: -4.63% | inhibition of growth at 10 µM [29]: -3.73% | inhibition of growth at 10 µM [30]: 4.61% | inhibition of growth at 10 µM [31]: 13.9% | inhibition of growth at 10 µM [32]: -5.42% | inhibition of growth at 10 µM [33]: 13% | inhibition of growth at 10 µM [34]: 6.04% | inhibition of growth at 10 µM [35]: -14.8% | inhibition of growth at 10 µM [36]: 6.94% | inhibition of growth at 10 µM [37]: 15.5% | inhibition of growth at 10 µM [38]: 0.74% | inhibition of growth at 10 µM [39]: 75.1% | inhibition of growth at 10 µM [40]: 41.5% | inhibition of growth at 10 µM [41]: 12.6% | inhibition of growth at 10 µM [42]: 1.67% | inhibition of growth at 10 µM [43]: 17.8% | inhibition of growth at 10 µM [44]: 73.7%

O=C(Cn1cncn1)Nc1ccc(-c2nc3ccccc3s2)cc1
inhibition of growth at 10 µM [1]: -2.11% | inhibition of growth at 10 µM [2]: 14.2% | inhibition of growth at 10 µM [3]: 8.15% | inhibition of growth at 10 µM [4]: 16.8% | inhibition of growth at 10 µM [5]: 16.2% | inhibition of growth at 10 µM [6]: 11.9% | inhibition of growth at 10 µM [7]: 25% | inhibition of growth at 10 µM [8]: 12.5% | inhibition of growth at 10 µM [9]: -0.63% | inhibition of growth at 10 µM [10]: 12.5% | inhibition of growth at 10 µM [11]: 6.06% | inhibition of growth at 10 µM [12]: -4.68% | inhibition of growth at 10 µM [13]: 1.84% | inhibition of growth at 10 µM [14]: 2.87% | inhibition of growth at 10 µM [15]: 8.06% | inhibition of growth at 10 µM [16]: -7.74% | inhibition of growth at 10 µM [17]: 6.99% | inhibition of growth at 10 µM [18]: 10% | inhibition of growth at 10 µM [19]: -0.27% | inhibition of growth at 10 µM [20]: -11.2% | inhibition of growth at 10 µM [21]: -4.86% | inhibition of growth at 10 µM [22]: 13.3% | inhibition of growth at 10 µM [23]: -2.17% | inhibition of growth at 10 µM [24]: 4.77% | inhibition of growth at 10 µM [25]: 7.64% | inhibition of growth at 10 µM [26]: 8.95% | inhibition of growth at 10 µM [27]: 19.4% | inhibition of growth at 10 µM [28]: -15% | inhibition of growth at 10 µM [29]: 5.43% | inhibition of growth at 10 µM [30]: 0.14% | inhibition of growth at 10 µM [31]: 4.38% | inhibition of growth at 10 µM [32]: -10.5% | inhibition of growth at 10 µM [33]: -25.3% | inhibition of growth at 10 µM [34]: 4.85% | inhibition of growth at 10 µM [35]: -6.22% | inhibition of growth at 10 µM [36]: 23.1% | inhibition of growth at 10 µM [37]: 14.2% | inhibition of growth at 10 µM [38]: 5.46% | inhibition of growth at 10 µM [39]: 63.9% | inhibition of growth at 10 µM [40]: 3.55% | inhibition of growth at 10 µM [41]: -3.42% | inhibition of growth at 10 µM [42]: 8.47% | inhibition of growth at 10 µM [43]: 35.1% | inhibition of growth at 10 µM [44]: 130%
